{"source": "patent US20100138935A1", "about": "“Detection of cellular stress” (priority 2004, published 2010)", "key": {"[1]": {"tested_on": "HO-1-LacZ (HOZ) transgene", "test": "LacZ transgene expression in HO-1-LacZ (HOZ) reporter mice", "assay_type": "in vivo, mouse", "conditions": "female HOZ mice, 13 mg/kg i.p. in isotonic saline, 8 hours or 24 hours", "procedure": "(§1) Each test compound was dissolved in the appropriate vehicle solution and administered by intraperitoneal injection (i.p.) at a dose volume of 10 ml/kg. Wherever possible, both naive (untreated) and vehicle-treated controls were used. If a test item whose toxicity in the mouse is poorly characterised was to be used, a dose-ranging experiment was conducted prior to the main experiment. The test item was administered to a single mouse which was monitored for any adverse effects 6-8 hours and 24 hours later. If the single dose ranging mouse tolerated the treatment, the remaining mice were administered the test item according to the protocol.\n(§2) Two slices of tissue (˜2 mm thickness) were removed for histochemical analysis of LacZ expression according to methods described below.\n(§3) Tissues were washed with PBS and prefixed in 0.2% glutaraldehyde in PBS containing 0.1M MgCl2 and 5 mM EDTA, pH 7.3, for 4 hours at 4° C. on a shaker. After fixation, the tissues were transferred to 20% Sucrose solution and dehydrated overnight at 4° C. The next day they were embedded in cryo-M-bed medium on cork discs and lowered slowly into liquid nitrogen then transferred to −80° C. until sections were required.\n(§4) Cryostat sample and chamber temperatures were set to −30° C. The sample to be sectioned was placed in the cryostat one hour prior to sectioning to allow equilibration at the appropriate temperature. Frozen sections (10 μm) were cut and placed on aminopropyltriethoxysilane (APES) coated slides.\n(§5) Prior to staining, sections were incubated in 0.2% glutaraldehyde (as above) for 10 minutes at room temperature then washed twice (5 min each) in PBS containing 2 mM MgCl2, 0.01% sodium deoxycholate and 0.02% % Nonidet-P40. Sections were then […] the same wash solution containing 1 mg/ml X-gal, 5 mM potassium ferrocyanide and 5 mM potassium ferricyanide overnight at 37° C. then washed twice in PBS for 5 min, allowed to air dry and mounted in aqueous mounting medium (Hydromount). Slides were evaluated and photographed. • Frozen Method 2\nTissues were excised, immediately placed into chilled 4% paraformaldehyde containing 0.1% glutaraldehyde and 2 mM MgCl2 in PBS, and fixed in the above solution for 3 hours at 2-8° C. with gentle shaking. Fixed tissues were washed at 2-8° C. for 3×5 minutes with chilled PBS containing 2 mM MgCl2 and dehydrated overnight at 2-8° C. in PBS containing 2 mM MgCl2 and 30% (w/v) sucrose overnight The next day dehydrated tissues were embedded in OCT embedding medium using an isopentane/dry ice bath. Embedded tissues were stored at −70° C. until they could be cryosectioned.\nFrozen sections were washed three times for 5 minutes in PBS containing 2 mM MgCl2 at 2-8° C. then 3×30 min in detergent wash (PBS containing 2 mM MgCl2 0.01% Nonidet P40 and 0.1% Sodium Deoxycholate) at 2-8° C. They were then stained overnight in PBS containing 2 mM MgCl2, 0.02% Nonidet P40, 0.1% Sodium Deoxycholate, 5 mM Potassium ferrocyanide, 5 mM Potassium ferricyanide, and 0.1% X-gal at 37° C. The next day, the slides were washed three times for 5 minutes in PBS containing 2 mM MgCl2 followed by three times for 5 minutes in PBS at room temperature. They were equilibrated with 100% ethanol (5 min) and counterstained with Eosin for 1 min at room temperature. Following dehydration and mounting they were evaluated and photographed. • Whole Mount Method\nTissue specimens that had been prefixed in fresh 4% paraformaldehyde were stained immediately using the procedure for “Whole Mount X-Gal Histochemistry of Transgenic Animal Tissues” (see http://www.rodentia.com/wmc/docs/lacZ bible.html), summarised below) was followed, and the post-fixed tissues were transferred to 70% (v/v) ethanol.\nFollowing fixation for one hour in 4% paraformaldehyde, tissues were rinsed three times, for thirty minutes each, with rinse buffer (100 mM sodium phosphate (pH 7.3), 2 mM MgCl2, 0.01% sodium deoxycholate, 0.02% NP-40) at room temperature. […]"}, "HOZ mice [2]": {"tested_on": "HOZ mice", "test": "Plasma ALT as a marker of hepatotoxicity in HOZ mice", "assay_type": "in vivo, mouse", "conditions": "13 mg/kg; for Plasma ALT: female", "procedure": "(§6) Terminal blood samples were taken by cardiac puncture into lithium/heparin-coated tubes for preparation of plasma. Tissues, as defined in each protocol, were routinely dissected as follows:\n(§7) Following removal into tubes suitable for plasma preparation, venous blood samples were mixed on a roller for 10 minutes then cooled on ice. Red blood cells were removed by centrifugation at 2,000 rpm for 10 minutes at 8-10° C. The supernatant (plasma) was transferred to a second tube and stored at −70° C. until required for analysis.\n(§8) Plasma samples were analysed for appropriate analytes on a Roche autoanalyser (Cobas Integra 400) according to the manufacturer's instructions. The routine markers measured included: (for liver damage) plasma alanine aminotransferase (ALT), aspartate aminotransferase (AST) and alkaline phosphatase (ALP) and (for kidney damage) plasma creatinine and blood urea nitrogen (BUN).\nTwo plasma enzyme markers, ALT and AST, were used as markers of hepatotoxicity in HOZ mice treated with cadmium chloride or sodium arsenite. The results of this analysis for HOZ mice treated with 10 mg/kg cadmium chloride are shown in Table 1 and for HOZ mice treated with 2-8 mg/kg cadmium chloride or 13 mg/kg sodium arsenite in Tables 2 and 3."}, "HOZ mice [3]": {"tested_on": "HOZ mice", "test": "Plasma AST as a marker of hepatotoxicity in HOZ mice", "assay_type": "in vivo, mouse", "conditions": "female, 13 mg/kg", "procedure": "as §6, §7, §8\nTwo plasma enzyme markers, ALT and AST, were used as markers of hepatotoxicity in HOZ mice treated with cadmium chloride or sodium arsenite. […]"}, "HOZ mice [4]": {"tested_on": "HOZ mice", "test": "BUN as a marker of nephrotoxicity in HOZ mice", "assay_type": "in vivo, mouse", "conditions": "female, 13 mg/kg", "procedure": "as §6, §7, §8\nThe increase in BUN was 6-fold at 8 hours and 44-fold after 24 hours."}, "p21-LacZ (WAZ) transgene": {"tested_on": "p21-LacZ (WAZ) transgene", "assay_type": "in vivo, mouse", "procedure": "as §1, §2\nMouse brains were dissected so as to reveal the dentate gyrus as fully as possible. In the case of the kidneys, one kidney was cut in longitudinal section and the other in transverse section.\nas §3, §4, §5\nIn experiments on WAZ44 mice, single doses of etoposide (of up to 40 mg/kg) were administered i.p. Animals were killed after 24 hours and tissues fixed and stained for LacZ expression.\nAcrylamide, at a total dose of 150 mg/kg, induces neuropathy manifesting as partial paralysis approximately 7 days after the start of treatment. The dose may be administered as a single injection or divided; however, the effect depends upon the total dose, and since a single dose of 150 mg/kg is likely to be acutely toxic, a five-day coursed of injections of 30 mg/kg is preferred. Acrylamide intoxication is associated with both central and peripheral effects; the central effects include behavioural changes (increased milk-licking) which occur within two days of dosing, preceding peripheral changes such as reduced hind-limb grip and reduced locomotor activity by up to three weeks (Teal and Evans, 1982). In experiments on WAZ44 mice, five doses of acrylamide (30 mg/kg) were administered i.p.\nA frozen section from the brain of an acrylamide-treated WAZ44 mouse was prepared and stained using Frozen Method 1. A dissecting microscope was used to view the slides and generate photomicrographs (a) transverse section of whole brain, original magnification ×10; (b) dentate gyrus and hippocampus, original magnification ×25 (c) cortex, original magnification ×63.\nWAZ mice received single i.p. injections of etoposide (40 mg/kg); mercuric chloride (HgCl2, 8.5 mg/kg); lipopolysaccharide (LPS, 1.5 mg/kg) or paracetamol (300 mg/kg). WAZ mice received a single i.p. injection of each compound at a single dose level (see FIG. 5). Twenty-four hours later, the mice were killed and the brains sectioned and stained for LacZ expression."}, "[5]": {"conditions": "dissolved in DMSO, injected intra-peritoneally; cited from earlier work"}, "[6]": {"tested_on": "HO-1-LacZ reporter transgene in HEK293 cells", "test": "Transient transfection of HO-1-LacZ reporter construct into HEK293 cells, induction with haemin", "assay_type": "cell-based, mouse", "description": "We have used RedET recombination cloning (Zhang et al., 2000) to produce a HO-1-LacZ reporter transgene. A LacZ-SV40polyA minigene was engineered to contain homologous regions to exons 1 and 2 of the HO-1 gene. This minigene cassette also contains a bacterial Amp gene, at the 3′-end, which was used as a selectable marker during cloning. The minigene was then introduced, by homologous recombination, into a BAC clone containing the mouse HO-1 locus (clone RPCI-23 290L07, HGMP Resource Centre) substituting for the endogenous HO-1 exon1 and intron1 sequences. Thus, the HO-1 promoter would express LacZ from the ATG start codon, in place of the HO-1 protein. The correct position of the LacZ-SV40polyA minigene was confirmed by sequencing both the 5′- and 3′-junction regions. The HO-1 reporter locus, containing most of the HO-1 gene together with 16.5 kb of upstream promoter and 8 kb of 3′ sequence, was then recombined out from the BAC clone into the pACYC low copy number plasmid backbone."}, "[7]": {"conditions": "WAZ mice, single i.p. injection (etoposide 40 mg/kg; HgCl2 8.5 mg/kg; LPS 1.5 mg/kg; paracetamol 300 mg/kg), 24 hours"}}, "note": "Like-named read-outs stand apart in the source and are kept apart here."}
{"compound": "O=[As]O", "note": "[Sodium Arsenite, sodium arsenite]", "values": [{"measurement": "HOZ transgene expression in liver", "setting": "[1]", "value": "expression of the HOZ transgene at both time points"}, {"measurement": "hepatotoxic response (plasma ALT, AST)", "setting": "HOZ mice [2]; HOZ mice", "value": "did not exhibit a hepatotoxic response"}, {"measurement": "Plasma ALT", "setting": "HOZ mice [2]; 8 hours", "value": 43.0, "unit": "u/L"}, {"measurement": "Plasma ALT", "setting": "HOZ mice [2]; 24 hours", "value": 26.7, "unit": "u/L"}, {"measurement": "Plasma AST", "setting": "HOZ mice [3]; 8 hours", "value": 107.3, "unit": "u/L"}, {"measurement": "Plasma AST", "setting": "HOZ mice [3]; 24 hours", "value": 67.8, "unit": "u/L"}, {"measurement": "BUN", "setting": "HOZ mice [4]; 8 hours", "value": 5.62}, {"measurement": "BUN", "setting": "HOZ mice [4]; 24 hours", "value": 3.50}]}
{"compound": "COc1cc([C@@H]2c3cc4c(cc3[C@@H](O[C@@H]3O[C@@H]5CO[C@@H](C)O[C@H]5[C@H](O)[C@H]3O)[C@H]3COC(=O)[C@H]23)OCO4)cc(OC)c1O", "note": "[etoposide]", "values": [{"measurement": "LacZ transgene expression in tissues", "setting": "p21-LacZ (WAZ) transgene; WAZ44 mice, single doses of up to 40 mg/kg i.p., killed after 24 hours", "value": "significant expression in the spleen, the thymus and in some regions of the brain"}, {"measurement": "expression of the WAZ transgene in the brain", "setting": "p21-LacZ (WAZ) transgene; mouse, in vivo", "value": "high levels of expression"}, {"measurement": "pattern of WAZ transgene induction in the brain", "setting": "p21-LacZ (WAZ) transgene; mouse, in vivo", "value": "induced expression in the same cells within the various regions in the brain"}, {"measurement": "LD50", "setting": "[5]", "value": 40, "unit": "mg/kg"}]}
{"compound": "C=CC1=C(C)c2cc3[n-]c(cc4nc(cc5[n-]c(cc1n2)c(C)c5C=C)C(C)=C4CCC(=O)O)c(CCC(=O)O)c3C.[Cl-].[Fe+3]", "note": "[haemin]", "values": [{"measurement": "increase in the LacZ labelling index over uninduced control cells", "setting": "[6]", "value": 11, "unit": "fold"}]}
{"compound": "[Cl][Hg][Cl]", "note": "[mercuric chloride]", "values": [{"measurement": "expression of the WAZ transgene in the brain", "setting": "p21-LacZ (WAZ) transgene; [7]", "value": "high levels of expression"}, {"measurement": "pattern of WAZ transgene induction in the brain", "setting": "p21-LacZ (WAZ) transgene; [7]", "value": "induced expression in the same cells within the various regions in the brain"}]}
{"compound": "CC(=O)Nc1ccc(O)cc1", "note": "[paracetamol]", "values": [{"measurement": "expression of the WAZ transgene in the brain", "setting": "p21-LacZ (WAZ) transgene; mouse, in vivo", "value": "high levels of expression"}, {"measurement": "pattern of WAZ transgene induction in the brain", "setting": "p21-LacZ (WAZ) transgene; mouse, in vivo", "value": "distinct pattern of induction within the hippocampus, cerebellum and cortex"}]}
{"compound": "lipopolysaccharide [LPS]", "values": [{"measurement": "expression of the WAZ transgene in the brain", "setting": "p21-LacZ (WAZ) transgene; [7]", "value": "high levels of expression"}, {"measurement": "pattern of WAZ transgene induction in the brain", "setting": "p21-LacZ (WAZ) transgene; [7]", "value": "induced expression in the same cells within the various regions in the brain"}]}
